Patent US20250263686A1, “METHODS OF INHIBITING NUCLEASE ACTIVITY, METHODS OF ISOLATING NUCLEI FROM CELLS, AND METHODS FOR EXTENDING DNA” (NATIONAL CHENG KUNG UNIVERSITY, priority 2024, published 2025)

How the values were obtained:
TdT [1] = target: T1, TdT (Bos taurus, UniProt P06526); test: TdT tailing of ssDNA oligo, electrophoresis and silver staining; assay type: biochemical; details: dATP 2 mM, FIG. 1
T1 construct: purchased
Experimental: 0.5 pmole of an ssDNA oligo (SEQ ID NO: 1) was incubated in 10 μL volumes of various compositions plus dATP (2 mM) and commercial TdT (0.25 μL) at 37° C., 45° C., 55° C., 65° C., 75° C. for 30, 5, 5, 5, 20 minutes, respectively. All the reaction was used for electrophoresis (FIG. 1).

TdT [2] = target: T1, TdT; test: TdT tailing of 3' recessed-end dsDNA substrate, electrophoresis and silver staining; assay type: biochemical; details: 37° C. for 60 minutes; for TdT tailing of 3' recessed-end substrate, alternative ingredients: compared with dATP and Co2+ buffer, FIG. 3
Experimental: 3′ recessed dsDNA was prepared by annealing 25 μM each of SEQ ID NO: 2 and SEQ ID NO: 3 in Tris-HCl pH 8 (25 mM), NaCl (12.5 mM), and EDTA (0.25 mM). 2.5 pmole of the annealed substrate was incubated in 20 μL of reaction mixtures containing PMSF (0.5 mM), dATP (2 mM), TRITON® X-100 (0.1%), Tris-acetate pH 7.9 (20 mM), and either Mg^2+ or Co^2+ in chloride salt form (M^2+, 0.75 mM) as tailing cofactors, with (+) or without (−) of TdT (0.25 μL) at 37° C. for 60 minutes followed by 75° C. for 20 minutes. Subsequently, all the reactions were loaded for electrophoresis.
5 pmole of the 3′ recessed-end substrate as in Example 2 was incubated in 10 μL of reaction containing HEPES (H) or Tris-acetate (T) pH 7.9 (20 mM), dATP (dA) or dGTP (dG) (2 mM), CoCl2 (Co) or MnCl2 (Mn) (0.75 or 2 mM), DTT (0 or 0.2 mM), and TdT (0 or 0.25 μL) at 37° C. for 60 minutes followed by 75° C. for 20 minutes before loading half of the samples for electrophoresis (FIG. 3).

pancreatic nucleases = test: RNaseAlert fluorescent assay of nuclease activity in crude pancreatic lysate; assay type: biochemical, murine; details: for inhibition of nuclease activity by Cu2+ in the presence of chelators: 2 mM CuSO4 plus 2 mM chelator, FIG. 10
Experimental: The crude pancreatic lysate was prepared by lyzing 10 mg of murine pancreas in 400 μL of lysis buffer (HEPES pH 7.2 20 mM, NaCl 146 mM, CaCl2 1 mM, MgCl2 21 mM, TWEEN® 20 0.1%, NP-40 0.1%, and digitonin 0.01%). The lysis was performed by bead beating (10 seconds, 4500 rpm) in 2 ml plastic tubes containing 6 glass beads of 2.5-mm diameter. The lysate was subjected to centrifugation at 17,000 RCF for 1 minute before the cleared nuclease-laden supernatant was kept for the assays.
To detect the nuclease activity, an RNaseAlert™ oligo made of chimeric DNA-RNA-DNA with a green fluorescence molecule on one end and a quencher on the other (50 nM) was used in 25 μL final reaction volume. The reactions were conducted in the pancreatic lysis buffer with a final volume of 25 μL, containing the specified additives (pancreatic lyate, CuSO4, or ZnSO4) in FIG. 5. After incubating at ambient temperature for 30 minutes, the reactions were diluted with 150 μL of the same buffer, excluding substrates and the lysate. Fluorescence detection was performed in triplicate, with excitation at 490 nm and emission at 520 nm.
(§1) The RNaseAlert™ oligo (50 nM) was prepared in pancreatic lysis buffer with a final volume of 25 μL, containing the specified additives (pancreatic lysate, CuSO4, or Cu^2+-citric acid at various concentrations) in FIG. 7. After incubating at ambient temperature for 30 minutes, the reactions were diluted to 150 μL with the same buffer, excluding substrates and lysate, for fluorescence quantification in triplicate of 50 μL.
as §1, with “lysis buffer, either HEPES-SO4 at pH 4.5 or HEPES at pH 7.2,” for “lysis buffer”, “lysate, Cu^2+,” for “lysate, CuSO4,”, “or chelators) and pH levels (pH 4.5 or 7.2)” for “or Cu^2+-citric acid at various concentrations)”, “FIG. 8.” for “FIG. 7.”
The RNaseAlert™ oligo (50 nM) was prepared in the pancreatic lysis buffer to a final volume of 25 μL, containing the specified additives (pancreatic lysate, 2 mM CuSO4, or 2 mM of various chelators), as shown in FIG. 10. After incubating at ambient temperature for 30 minutes, the reactions were diluted to 150 μL with the same buffer, excluding substrates and lysate, for fluorescence quantification in triplicate of 50 μL.
The RNaseAlert™ oligo (50 nM) was prepared in either the pancreatic lysis buffer (Buffer P) or a low-pH buffer (Buffer C, composed of 25 mM citrate at pH 3 and 250 mM sucrose) to a final volume of 25 μL. The preparation contained the specified additives (pancreatic lysate, 1% DEPC, and Cu^2+-citric acid at specified concentrations) and is depicted in FIG. 11. After incubating at ambient temperature for 30 minutes, the reactions were diluted to 150 μL with the same buffer, excluding substrates and lysate, for fluorescence quantification in triplicate of 50 μL.

[3] = Precipitation by optical density at 600 nm, with or without bovine serum albumin; assay type: physicochemical; details: for protein aggregation / precipitation with bovine serum albumin (visual and OD600): BSA 10 g/L, pH 4.5, 5.5 and 7.2, FIG. 6
Experimental: A total of 180 μL of reactions per well were prepared at ambient temperature in a 96-well plate. These reactions contained various buffers (none or 100 mM) at specified pH levels, Cu^2+ salts in either sulfate (no pH adjustment) or citrate form (at pH 4.5 or 7.2, as specified) at the indicated concentrations, and bovine serum albumin (10 g/L final concentration) in FIG. 6. The reactions were prepared in triplicate, photographed directly (FIG. 6, lower), and measured for optical density at 600 nm (FIG. 6, upper) to indicate precipitation.

RNase A = target: T2, RNase A (Bos taurus, UniProt P61823); test: RNaseAlert fluorescent assay with RNase A; assay type: biochemical; details: RNase A 50 ng, 10 minutes at ambient temperature, FIG. 9
T2 sequence (P61823 27-150): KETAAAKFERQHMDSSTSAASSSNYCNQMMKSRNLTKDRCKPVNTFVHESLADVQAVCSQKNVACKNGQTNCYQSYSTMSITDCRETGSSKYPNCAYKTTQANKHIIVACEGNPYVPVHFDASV
Experimental: as §1, with “Cu^2+-citric acid,” for “CuSO4,”, “or” for “or Cu^2+-citric acid at”, “nucleases)” for “concentrations)”, “9.” for “7.”, “10” for “30”

micrococcal nuclease = micrococcal nuclease (Staphylococcus aureus, UniProt P00644); test: RNaseAlert fluorescent assay with micrococcal nuclease; assay type: biochemical; details: micrococcal nuclease 200 gel units, 10 minutes at ambient temperature, FIG. 9
Experimental: as §1, with “Cu^2+-citric acid,” for “CuSO4,”, “or” for “or Cu^2+-citric acid at”, “nucleases)” for “concentrations)”, “9.” for “7.”, “10” for “30”

benzonase = benzonase (Serratia marcescens, UniProt P13717); test: RNaseAlert fluorescent assay with benzonase; assay type: biochemical; details: benzonase 20 units, 10 minutes at ambient temperature, FIG. 9
Sequence of benzonase (P13717 22-266): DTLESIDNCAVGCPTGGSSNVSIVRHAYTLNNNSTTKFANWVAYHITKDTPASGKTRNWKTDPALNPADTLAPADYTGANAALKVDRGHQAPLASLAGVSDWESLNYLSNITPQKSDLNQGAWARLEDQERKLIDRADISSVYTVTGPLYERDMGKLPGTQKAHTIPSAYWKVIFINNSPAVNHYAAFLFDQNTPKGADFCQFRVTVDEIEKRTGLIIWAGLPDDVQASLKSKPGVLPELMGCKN
Experimental: as §1, with “Cu^2+-citric acid,” for “CuSO4,”, “or” for “or Cu^2+-citric acid at”, “nucleases)” for “concentrations)”, “9.” for “7.”, “10” for “30”

pancreatic nuclease = test: RT-qPCR of nuclear mRNA (GAPDH, PSMB4) in HEK293 nuclei exposed to pancreatic lysate; assay type: biochemical, murine; details: 10 mM complex, pH 4.5 and 7.2, HEK293 nuclei, FIG. 12
Experimental: To mimic nuclear extraction by direct lysis of challenging organs, HEK293 cells were lysed in the presence of nuclease-rich pancreatic lysate, with or without the Cu^2+-chelator complex: Thirty μL of pancreatic lysis buffer containing 50 mM HEPES at pH 4.5 or 7.2, 1× Halt proteinase inhibitor, 2 μL of pancreatic lysate, and either 0 mM (control) or 10 mM of Cu^2+-citric acid complex from 250 mM stock solutions (at pH 4.5 and 7.2, respectively) were prepared on ice. 20,000 HEK293T cells in 2 μL of PBS were added to the lysis buffer, and the nuclei were released by rotating the cells in the fridge for 15 minutes. The nuclear pellets were obtained by centrifugation in a swing-bucket rotor at 1,000 g for 1 minute, washed twice with the same buffers excluding HALT, with the detergent in the wash buffer removed and replaced with 0.05% PVA. The washed nuclei were lysed with 15 μL of lysis buffer containing 0.2% TX-100 and […] proteinase K by vortexing at 1,200 rpm for 30 minutes at 37° C. The lysate was divided equally into 20 μL RT reactions, each containing RNA lysates, 0.2 μL of PMSF (50 mM in DMSO), 1× RT buffer (Tris-HCl pH 8.3, 50 mM; KCl, 75 mM; MgCl2, 3 mM; DTT, 5 mM), dNTPs (final concentration 0.5 mM each), homemade rat RNase inhibitor (100 ng), PVA (0.05%), T23VN (1 μM), and either 0 (for genomic DNA control) or 100 ng of homemade reverse transcriptase. […]

T1 sequence (P06526 whole entry): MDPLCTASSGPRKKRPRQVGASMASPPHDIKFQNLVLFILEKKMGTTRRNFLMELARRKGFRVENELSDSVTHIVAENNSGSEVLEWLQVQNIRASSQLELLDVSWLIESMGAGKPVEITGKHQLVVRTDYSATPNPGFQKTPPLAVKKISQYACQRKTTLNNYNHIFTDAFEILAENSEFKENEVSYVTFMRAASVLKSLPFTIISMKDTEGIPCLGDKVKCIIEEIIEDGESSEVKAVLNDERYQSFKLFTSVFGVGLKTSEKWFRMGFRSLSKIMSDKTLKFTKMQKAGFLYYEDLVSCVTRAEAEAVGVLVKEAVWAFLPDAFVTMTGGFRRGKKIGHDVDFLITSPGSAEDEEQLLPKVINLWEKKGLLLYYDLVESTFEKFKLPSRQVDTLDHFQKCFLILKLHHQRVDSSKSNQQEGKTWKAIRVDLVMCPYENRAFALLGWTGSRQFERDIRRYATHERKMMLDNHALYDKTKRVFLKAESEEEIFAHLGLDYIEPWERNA

Q: With `CC(=O)[O-].[K+]` [K^+, potassium acetate] as the compound, how does the “TdT poly(dA) tailing of ssDNA substrate” value (TdT [1]) read?
A: Its value is “detrimental to tailing”.

Q: Which “TdT tailing of 3' recessed-end substrate, alternative ingredients” value (from here on “TdT tailing … alternative ingredients”) (TdT [2]) does the source give for `[Cl][Mn][Cl]` [Mn^2+, MnCl2] here?
A: The value was “not to improve”.

Q: Which “TdT poly(dA) tailing of ssDNA substrate” value (TdT [1]) does the source give for `[Cl][Co][Cl]` [Co^2+, cobalt chloride] here?
A: The value was “could replace Mg^2+ for tailing the ssDNA”.

Q: What about the “TdT tailing of 3' recessed-end substrate, Co2+ versus Mg2+” value (TdT [2]; M2+ 0.75 mM, dATP 2 mM, FIG. 2) of the same compound?
A: Its value is “nearly complete upshift of the substrate”.

Q: With `O=C(O)CN(CC(=O)O)CC(=O)O.[Cu]` [Cu^2+ with nitrilotriacetic acid (NTA), copper; 2-[bis(carboxylatomethyl)amino]acetate;hydron] as the compound, how does the “inhibition of nuclease activity by Cu2+ in the presence of chelators” value (pancreatic nucleases; 30 minutes) read?
A: Its value is “still inhibited nuclease activity”.

Q: Which “TdT tailing … alternative ingredients” value (TdT [2]) does the source give for `Nc1nc2c(ncn2[C@H]2C[C@H](O)[C@@H](COP(=O)(O)OP(=O)(O)OP(=O)(O)O)O2)c(=O)[nH]1` [dGTP] here?
A: Its value is “detrimental”.

Q: With `CC(=O)[O-].CC(=O)[O-].[Mg+2]` [Mg^2+, magnesium acetate] as the compound, how does the “TdT poly(dA) tailing of ssDNA substrate” value (TdT [1]) read?
A: Its value is “yielded shorter tails”.

Q: For `O[C@H](CS)[C@H](O)CS` (racemic) [DTT, dithiothreitol], which “TdT tailing … alternative ingredients” value (TdT [2]) is on record?
A: Its value is “does not affect the results”.

Q: With `O=S(=O)([O-])[O-].[Cu+2]` [Cu^2+, CuSO4] as the compound, how does the “nuclease activity in pancreatic lysate” value (pancreatic nucleases; CuSO4 in pancreatic lysis buffer pH 7.2, 30 minutes at ambient temperature, FIG. 5) read?
A: The value was “effectively diminished the nuclease activity”.

Q: What about the “protein aggregation / precipitation with bovine serum albumin (visual and OD600)” value [3] of the same compound?
A: Its value is “severe protein aggregation at pH above 5.5”.

Q: What about the “solubility in water (precipitation, OD600)” value ([3]; neutral pH, no protein, concentrations as low as 1 mM, FIG. 6) of the same compound?
A: The value was “only minimally soluble”.

Q: Which “inhibition of nuclease activity by Cu2+ in the presence of chelators” value (pancreatic nucleases; 30 minutes) does the source give for `O=C(O)CC(O)(CC(=O)O)C(=O)O.[Cu].[Cu]` [Cu^2+-citric acid complex, dicopper; 2-hydroxypropane-1,2,3-tricarboxylic acid] here?
A: Its value is “still inhibited nuclease activity”.

Q: What about the “RNase inhibition compared with low-pH buffer and DEPC” value (pancreatic nucleases; 10 mM complex, 30 minutes, FIG. 11) of the same compound?
A: The value was “comparable RNase inhibition to the low-pH buffer”.

Q: And the “nuclease-blocking activity at acidic and neutral pH” value (pancreatic nucleases; pH 4.5 and pH 7.2, FIG. 8)?
A: Its value is “active at both acidic and neutral pH”.

Q: What about the “blocking of pancreatic nuclease activity, chelated versus unchelated Cu2+” value (pancreatic nucleases; various concentrations, 30 minutes at ambient temperature, FIG. 7) of the same compound?
A: Its value is “still capable of blocking pancreatic nuclease activity in a dose-dependent manner, similar or even more potent to the unchelated form”.

Q: And the “protein aggregation / precipitation with bovine serum albumin (visual and OD600)” value [3]?
A: Its value is “resolved this issue at all pH values tested”.

Q: And the “blocking of RNase A activity” value (RNase A)?
A: The value was “capable of blocking the activities”.

Q: And the “blocking of micrococcal nuclease activity” value (micrococcal nuclease)?
A: The value was “capable of blocking the activities”.

Q: What about the “blocking of benzonase activity” value (benzonase) of the same compound?
A: Its value is “capable of blocking the activities”.

Q: And the “protection of nuclear RNA from degradation by pancreatic nuclease” value (pancreatic nuclease)?
A: The value was “necessary to protect and retain nuclear RNA from complete degradation”.
